Laboratory results as given in the kinase profiling compilation of Christmann-Franck et al. (2016).

Legend:
Test in all cases: SelectScreen, TR FRET
Details in all cases: compound 5.0 µM
ROS1 (human) = ROS1 (human) (UniProt P08922)
SRC (human) = SRC (human) (UniProt P12931)
FLT3 (human) = FLT3 (human) (UniProt P36888)
MUSK (human) = MUSK (human) (UniProt O15146)
CSNK1G2 (human) = CSNK1G2 (human) (UniProt P78368)
PRKD1 (human) = PRKD1 (human) (UniProt Q15139)
NTRK3 (human) = NTRK3 (human) (UniProt Q16288)
EPHA1 (human) = EPHA1 (human) (UniProt P21709)
RPS6KA3 KD1 KD2 (human) = RPS6KA3 KD1 KD2 (human) (UniProt P51812)
SGK2 (human) = SGK2 (human) (UniProt Q9HBY8)
PHKG2 (human) = PHKG2 (human) (UniProt P15735)
GRK7 (human) = GRK7 (human) (UniProt Q8WTQ7)
CHEK2 (human) = CHEK2 (human) (UniProt O96017)
CLK2 (human) = CLK2 (human) (UniProt P49760)
CLK2 (human), sequence (P49760 whole entry, looked up): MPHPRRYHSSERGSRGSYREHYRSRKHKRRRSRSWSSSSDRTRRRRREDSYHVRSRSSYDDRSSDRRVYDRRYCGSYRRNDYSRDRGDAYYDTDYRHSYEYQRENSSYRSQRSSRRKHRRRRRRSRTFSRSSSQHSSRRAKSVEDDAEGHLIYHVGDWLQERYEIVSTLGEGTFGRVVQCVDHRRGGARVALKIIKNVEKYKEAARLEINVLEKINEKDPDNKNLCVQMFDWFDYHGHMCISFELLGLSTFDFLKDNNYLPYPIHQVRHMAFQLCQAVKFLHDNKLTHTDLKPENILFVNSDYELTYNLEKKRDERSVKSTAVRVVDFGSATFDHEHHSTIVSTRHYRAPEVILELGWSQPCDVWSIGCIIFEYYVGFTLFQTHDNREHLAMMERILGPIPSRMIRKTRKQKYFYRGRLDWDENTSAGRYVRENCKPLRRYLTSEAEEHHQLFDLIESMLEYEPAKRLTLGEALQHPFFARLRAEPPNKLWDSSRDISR

MAP3K9 (human) = MAP3K9 (human) (UniProt P80192)
JAK3 JH1 JH2 (human) = JAK3 JH1 JH2 (human) (UniProt P52333)
FGR (human) = FGR (human) (UniProt P09769)
DAPK3 (human) = DAPK3 (human) (UniProt O43293)
FGFR1 (human) = FGFR1 (human) (UniProt P11362)
PRKCE (human) = PRKCE (human) (UniProt Q02156)
MAPK1 (human) = MAPK1 (human) (UniProt P28482)
MAPK1 (human), sequence (P28482 whole entry, looked up): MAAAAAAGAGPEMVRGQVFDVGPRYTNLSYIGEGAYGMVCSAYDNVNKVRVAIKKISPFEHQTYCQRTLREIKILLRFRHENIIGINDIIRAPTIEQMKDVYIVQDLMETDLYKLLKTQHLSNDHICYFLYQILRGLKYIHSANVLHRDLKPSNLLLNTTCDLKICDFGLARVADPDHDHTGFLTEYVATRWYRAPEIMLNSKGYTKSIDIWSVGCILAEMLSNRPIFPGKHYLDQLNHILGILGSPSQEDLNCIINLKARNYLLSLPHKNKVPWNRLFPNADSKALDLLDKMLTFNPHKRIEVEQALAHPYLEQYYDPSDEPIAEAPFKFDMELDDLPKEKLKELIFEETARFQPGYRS

FLT1 (human) = FLT1 (human) (UniProt P17948)
FLT1 (human), sequence (P17948 whole entry, looked up): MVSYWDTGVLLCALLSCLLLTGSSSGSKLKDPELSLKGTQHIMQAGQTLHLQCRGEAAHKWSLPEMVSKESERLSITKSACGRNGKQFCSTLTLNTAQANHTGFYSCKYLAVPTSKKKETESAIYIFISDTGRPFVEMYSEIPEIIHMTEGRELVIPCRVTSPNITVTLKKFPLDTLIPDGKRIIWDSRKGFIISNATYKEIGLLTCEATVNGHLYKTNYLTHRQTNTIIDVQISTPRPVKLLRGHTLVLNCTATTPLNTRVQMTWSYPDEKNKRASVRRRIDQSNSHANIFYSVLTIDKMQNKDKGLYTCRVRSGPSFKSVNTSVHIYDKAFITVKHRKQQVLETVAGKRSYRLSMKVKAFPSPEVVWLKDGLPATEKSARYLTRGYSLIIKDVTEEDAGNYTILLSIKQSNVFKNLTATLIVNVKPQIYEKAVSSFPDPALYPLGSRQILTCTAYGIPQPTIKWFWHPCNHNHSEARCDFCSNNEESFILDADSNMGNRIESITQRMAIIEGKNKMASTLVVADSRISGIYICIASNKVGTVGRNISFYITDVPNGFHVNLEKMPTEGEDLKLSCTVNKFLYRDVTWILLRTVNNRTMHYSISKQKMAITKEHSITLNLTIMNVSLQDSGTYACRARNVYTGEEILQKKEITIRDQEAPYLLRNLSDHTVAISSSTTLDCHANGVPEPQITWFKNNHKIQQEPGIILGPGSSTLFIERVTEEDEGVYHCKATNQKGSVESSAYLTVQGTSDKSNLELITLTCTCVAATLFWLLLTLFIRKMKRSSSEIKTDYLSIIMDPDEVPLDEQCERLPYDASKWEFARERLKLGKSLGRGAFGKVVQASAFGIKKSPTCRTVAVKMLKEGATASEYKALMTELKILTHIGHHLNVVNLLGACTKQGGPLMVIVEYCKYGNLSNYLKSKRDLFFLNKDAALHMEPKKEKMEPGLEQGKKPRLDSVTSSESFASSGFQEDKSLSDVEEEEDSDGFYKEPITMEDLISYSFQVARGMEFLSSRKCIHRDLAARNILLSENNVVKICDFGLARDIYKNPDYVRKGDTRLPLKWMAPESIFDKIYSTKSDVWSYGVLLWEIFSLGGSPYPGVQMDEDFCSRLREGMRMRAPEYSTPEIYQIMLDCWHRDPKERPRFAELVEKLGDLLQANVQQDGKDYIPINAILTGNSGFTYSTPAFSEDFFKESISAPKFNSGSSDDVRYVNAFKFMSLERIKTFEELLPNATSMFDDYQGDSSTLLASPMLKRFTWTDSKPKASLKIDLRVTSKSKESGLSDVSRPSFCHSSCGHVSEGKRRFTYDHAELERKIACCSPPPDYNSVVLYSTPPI

INSR (human) = INSR (human) (UniProt P06213)
INSR (human), sequence (P06213 whole entry, looked up): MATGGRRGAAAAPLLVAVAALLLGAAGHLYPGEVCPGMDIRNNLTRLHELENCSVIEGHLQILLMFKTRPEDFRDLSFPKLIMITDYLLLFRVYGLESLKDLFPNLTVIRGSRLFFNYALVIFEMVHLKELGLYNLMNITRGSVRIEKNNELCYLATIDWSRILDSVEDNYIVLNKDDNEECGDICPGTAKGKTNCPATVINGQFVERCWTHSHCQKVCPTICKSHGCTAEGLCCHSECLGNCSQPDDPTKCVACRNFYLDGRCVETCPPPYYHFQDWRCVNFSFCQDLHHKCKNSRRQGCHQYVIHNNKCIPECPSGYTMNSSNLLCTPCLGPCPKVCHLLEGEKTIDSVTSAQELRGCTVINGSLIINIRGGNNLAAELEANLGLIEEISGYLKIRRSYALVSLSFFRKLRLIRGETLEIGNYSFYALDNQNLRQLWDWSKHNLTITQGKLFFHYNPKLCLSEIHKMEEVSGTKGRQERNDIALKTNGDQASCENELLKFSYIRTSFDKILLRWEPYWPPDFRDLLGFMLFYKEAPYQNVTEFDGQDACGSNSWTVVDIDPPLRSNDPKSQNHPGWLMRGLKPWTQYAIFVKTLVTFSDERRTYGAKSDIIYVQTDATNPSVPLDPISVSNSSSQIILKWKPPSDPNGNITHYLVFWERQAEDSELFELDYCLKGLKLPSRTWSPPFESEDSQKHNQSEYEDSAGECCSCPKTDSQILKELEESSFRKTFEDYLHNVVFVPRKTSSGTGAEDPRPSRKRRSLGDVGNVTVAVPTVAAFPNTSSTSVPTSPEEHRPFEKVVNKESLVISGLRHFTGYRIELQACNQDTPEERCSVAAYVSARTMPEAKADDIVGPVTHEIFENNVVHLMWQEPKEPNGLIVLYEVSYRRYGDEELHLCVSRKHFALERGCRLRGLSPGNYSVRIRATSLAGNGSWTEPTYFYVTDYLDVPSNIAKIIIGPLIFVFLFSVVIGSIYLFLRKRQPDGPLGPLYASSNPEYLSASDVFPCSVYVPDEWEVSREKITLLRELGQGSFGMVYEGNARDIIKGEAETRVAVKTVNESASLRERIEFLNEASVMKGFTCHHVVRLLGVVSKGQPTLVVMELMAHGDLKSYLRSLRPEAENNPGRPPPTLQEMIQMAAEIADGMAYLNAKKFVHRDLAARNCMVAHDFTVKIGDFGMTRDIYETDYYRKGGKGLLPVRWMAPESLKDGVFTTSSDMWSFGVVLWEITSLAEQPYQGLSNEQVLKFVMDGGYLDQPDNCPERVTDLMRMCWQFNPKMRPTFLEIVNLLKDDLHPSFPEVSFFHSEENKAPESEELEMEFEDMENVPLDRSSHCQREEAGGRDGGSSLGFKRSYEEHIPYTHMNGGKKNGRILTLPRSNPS

GRK4 (human) = GRK4 (human) (UniProt P32298)
TSSK1B (human) = TSSK1B (human) (UniProt Q9BXA7)
BLK (human) = BLK (human) (UniProt P51451)
MATK (human) = MATK (human) (UniProt P42679)
CSNK1G1 (human) = CSNK1G1 (human) (UniProt Q9HCP0)
CSNK1G1 (human), sequence (Q9HCP0 whole entry, looked up): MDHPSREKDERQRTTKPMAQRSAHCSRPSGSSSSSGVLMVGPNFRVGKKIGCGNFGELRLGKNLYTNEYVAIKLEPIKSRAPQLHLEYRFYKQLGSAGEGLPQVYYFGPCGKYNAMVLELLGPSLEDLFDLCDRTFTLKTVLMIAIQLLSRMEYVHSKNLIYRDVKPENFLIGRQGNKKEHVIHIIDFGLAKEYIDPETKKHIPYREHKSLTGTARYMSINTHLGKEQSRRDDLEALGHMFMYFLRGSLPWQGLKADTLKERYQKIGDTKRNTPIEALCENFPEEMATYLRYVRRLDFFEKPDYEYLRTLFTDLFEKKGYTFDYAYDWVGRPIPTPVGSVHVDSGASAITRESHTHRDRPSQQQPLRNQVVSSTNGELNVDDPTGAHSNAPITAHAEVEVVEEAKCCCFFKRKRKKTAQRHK

CSK (human) = CSK (human) (UniProt P41240)
BMX (human) = BMX (human) (UniProt P51813)
RPS6KB1 (human) = RPS6KB1 (human) (UniProt P23443)
PRKACA (human) = PRKACA (human) (UniProt P17612)
[1] = tested on: ABL1 (human), P00519 [G250E]
FLT4 (human) = FLT4 (human) (UniProt P35916)
CDK2 CCNA2 (human) = CDK2 CCNA2 (human) (UniProt P24941+P20248)
PLK3 (human) = PLK3 (human) (UniProt Q9H4B4)
PLK3 (human), sequence (Q9H4B4 whole entry, looked up): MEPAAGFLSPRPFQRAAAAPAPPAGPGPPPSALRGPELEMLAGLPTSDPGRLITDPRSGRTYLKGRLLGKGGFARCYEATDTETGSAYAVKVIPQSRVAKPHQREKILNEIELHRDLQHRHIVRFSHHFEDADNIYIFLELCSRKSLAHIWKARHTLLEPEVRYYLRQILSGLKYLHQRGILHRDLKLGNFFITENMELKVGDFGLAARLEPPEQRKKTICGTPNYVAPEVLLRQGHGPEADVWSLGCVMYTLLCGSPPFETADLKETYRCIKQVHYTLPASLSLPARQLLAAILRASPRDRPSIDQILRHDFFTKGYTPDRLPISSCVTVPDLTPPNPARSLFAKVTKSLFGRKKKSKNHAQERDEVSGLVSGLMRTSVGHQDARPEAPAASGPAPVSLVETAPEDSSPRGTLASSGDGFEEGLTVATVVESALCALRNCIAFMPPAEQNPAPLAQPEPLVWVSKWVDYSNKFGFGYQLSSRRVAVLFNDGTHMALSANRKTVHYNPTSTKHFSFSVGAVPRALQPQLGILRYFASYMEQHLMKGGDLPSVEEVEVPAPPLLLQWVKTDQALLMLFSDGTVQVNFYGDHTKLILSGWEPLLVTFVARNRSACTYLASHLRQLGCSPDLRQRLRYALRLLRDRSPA

CLK1 (human) = CLK1 (human) (UniProt P49759)
GRK5 (human) = GRK5 (human) (UniProt P34947)
STK3 (human) = STK3 (human) (UniProt Q13188)
MET (human) = MET (human) (UniProt P08581)

CSNK1G2 (human), sequence (P78368 whole entry, looked up): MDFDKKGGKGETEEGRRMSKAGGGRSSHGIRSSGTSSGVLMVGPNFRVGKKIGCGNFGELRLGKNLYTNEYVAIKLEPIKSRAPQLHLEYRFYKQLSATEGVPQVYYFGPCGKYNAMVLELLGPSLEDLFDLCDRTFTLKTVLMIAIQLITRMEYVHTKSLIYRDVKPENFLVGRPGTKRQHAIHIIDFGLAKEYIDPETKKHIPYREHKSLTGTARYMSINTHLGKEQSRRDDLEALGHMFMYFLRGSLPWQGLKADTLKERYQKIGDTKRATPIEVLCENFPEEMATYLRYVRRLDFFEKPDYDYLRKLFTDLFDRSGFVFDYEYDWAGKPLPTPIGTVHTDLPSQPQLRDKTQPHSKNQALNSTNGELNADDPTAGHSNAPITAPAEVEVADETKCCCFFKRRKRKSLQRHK

- inhibition (ROS1 (human)): 27%
- inhibition (SRC (human)): 10%
- inhibition (FLT3 (human)): 18%
- inhibition (MUSK (human)): 5%
- inhibition (CSNK1G2 (human)): 0%
- inhibition (PRKD1 (human)): 5%
- inhibition (NTRK3 (human)): 4%
- inhibition (EPHA1 (human)): -2%
- inhibition (RPS6KA3 KD1 KD2 (human)): 2%
- inhibition (SGK2 (human)): 10%
- inhibition (PHKG2 (human)): 3%
- inhibition (GRK7 (human)): 0%
- inhibition (CHEK2 (human)): 17%
- inhibition (CLK2 (human)): 15%
- inhibition (MAP3K9 (human)): 2%
- inhibition (JAK3 JH1 JH2 (human)): 7%
- inhibition (FGR (human)): 15%
- inhibition (DAPK3 (human)): 1%
- inhibition (FGFR1 (human)): 4%
- inhibition (PRKCE (human)): 2%
- inhibition (MAPK1 (human)): 6%
- inhibition (FLT1 (human)): 2%
- inhibition (INSR (human)): 6%
- inhibition (GRK4 (human)): 2%
- inhibition (TSSK1B (human)): -4%
- inhibition (BLK (human)): -3%
- inhibition (MATK (human)): 0%
- inhibition (CSNK1G1 (human)): 1%
- inhibition (CSK (human)): 5%
- inhibition (BMX (human)): 3%
- inhibition (RPS6KB1 (human)): 8%
- inhibition (PRKACA (human)): 0%
- inhibition [1]: -4%
- inhibition (FLT4 (human)): 2%
- inhibition (CDK2 CCNA2 (human)): 2%
- inhibition (PLK3 (human)): 1%
- inhibition (CLK1 (human)): 32%
- inhibition (GRK5 (human)): 1%
- inhibition (STK3 (human)): 5%
- inhibition (MET (human)): 5%
Compound: Nc1cc(C(F)(F)F)c(-c2cc(N3CCOCC3)nc(N3CCOCC3)n2)cn1
